How the values were obtained:
[1] = In vitro cytotoxicity assay (MTT cell viability) in HepG2 cells; type: cell-based, human; conditions: human
Method in brief: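 Viability measured by MTT conversion, absorbance at 492 nm, as percent of vehicle-treated wells. Compounds spanned 30 μM to 1.0 nM in half-log steps over a 7-day exposure of parental HepG2 cells; CC50 derived by 4-parameter curve fit.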

[2] = test system: HBV replication in HepAD38 cells; assay: Anti-HBV replication assay in HepAD38 cells (QPCR of extracellular HBV DNA); type: cell-based, HBV (genotype D, serotype ayw); conditions: Hepatitis B virus, 168 h, 7 days incubation, extracellular HBV DNA by QPCR, read-out: Anti-HBV EC50
Method in brief: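 Tet-off HepAD38, 7-day compound exposure ([…], 1 log10 steps, DMSO vehicle), 37 °C. Extracellular HBV DNA by QPCR, copies/mL via standard curve, % inhibition vs vehicle, EC50 by 4-parameter regression. Entecavir as positive control.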

SMILES | CC50 at 7 days [1] | EC50 [2]
Cc1c(C(=O)Nc2ccc(F)c(Cl)c2)c(C)n(C)c1C(=O)C(=O)N[C@H]1CC[C@@H](O)CC1 [Example 251, N-(3-chloro-4-fluorophenyl)-5-(2-(((1s,4s)-4-hydroxycyclohexyl)amino)-2-oxoacetyl)-1,2,4-trimethyl-1H-pyrrole-3-carboxamide] | > 30 µM | < 0.05 µM
Cc1cc(NC(=O)c2c(C)c(C(=O)C(=O)NC3(C)CC=CCC3)n(C)c2C)ccc1F (stereo not drawn) [Example 694, N-(4-fluoro-3-methylphenyl)-1,2,4-trimethyl-5-(2-((1-methylcyclohex-3-en-1-yl)amino)-2-oxoacetyl)-1H-pyrrole-3-carboxamide] | > 30 µM | < 0.05 µM
Cc1noc([C@@H](C)NC(=O)C(=O)c2c(Cl)c(C(=O)Nc3ccc(F)c(F)c3)c3n2CCC3)n1 [Example 567, (R)-6-chloro-N-(3,4-difluorophenyl)-5-(2-((1-(3-methyl-1,2,4-oxadiazol-5-yl)ethyl)amino)-2-oxoacetyl)-2,3-dihydro-1H-pyrrolizine-7-carboxamide] | > 30 µM | < 0.05 µM
Cc1cc(NC(=O)c2c(C)c(C(=O)C(=O)NC3(C)CC(F)(F)C3)n(C)c2C)cnc1F [Example 206, 5-(2-((3,3-difluoro-1-methylcyclobutyl)amino)-2-oxoacetyl)-N-(6-fluoro-5-methylpyridin-3-yl)-1,2,4-trimethyl-1H-pyrrole-3-c carboxamide] | > 30 µM | < 0.05 µM
Cc1cc(NC(=O)c2c(C)c(C(=O)C(=O)NC3(C(F)(F)F)CCOC3)n(C)c2C)ccc1F (stereo not drawn) [Example 278, N-(4-fluoro-3-methylphenyl)-1,2,4-trimethyl-5-(2-oxo2-((3-(trifluoromethyl)tetrahydrofuran-3-yl)amino)acetyl)-1H-pyrrole-3-carboxamide] | > 30 µM | < 0.05 µM
Cc1cc(NC(=O)c2c(C)c(C(=O)C(=O)N[C@H]3CC[C@H](O)CC3)n(C)c2C)ccc1F [Example 246, N-(4-fluoro-3-methylphenyl)-5-(2-(((1r,4r)-4-hydroxycyclohexyl)amino)-2-oxoacetyl)-1,2,4-triemthyl-1H-pyrrole-3-carboxamide] | 5 to 30 µM | < 0.05 µM
Cc1cc(NC(=O)c2c(C)c(C(=O)C(=O)N[C@H]3CC[C@H](N)CC3)n(C)c2C)ccc1F [Example 232, 5-(2-(((1r,4r)-4-aminocyclohexyl)amino)-2-oxoacetyl)-N-(4-fluoro-3-methylphenyl)-1,2,4-trimethyl-1H-pyrrole-3-carboxamide] | > 30 µM | < 0.05 µM
Cc1c(C(=O)Nc2ccc(F)c(Cl)c2)c(C)n(C)c1C(=O)C(=O)NC12CCC(O)(CC1)CC2 [Example 357, N-(3-chloro-4-fluorophenyl)-5-(2-((4-hydroxybicyclo[2.2.2]octan-1-yl)amino)-2-oxoacetyl)-1,2,4-trimethyl-1H-pyrrole-3-carboxamide] | > 30 µM | < 0.05 µM
Cc1noc(C(NC(=O)C(=O)c2cc(C(=O)Nc3ccc(F)c(C)c3)c3n2CCCC3)C(C)C)n1 (stereo not drawn) [Example 394, N-(4-fluoro-3-methylphenyl)-3-(2-((2-methyl-1-(3-methyl-1,2,4-oxadiazol-5-yl)propyl)amino)-2-oxoacetyl)-5,6,7,8-tetrahydroindolizine-1-carboxamide] | > 30 µM | 0.05 to 0.499 µM
Cc1cc(NC(=O)c2c(C)c(C(=O)C(=O)NC3(C)CCN(C(=O)c4cnn(C)c4)CC3)n(C)c2C)ccc1F [Example 693, N-(4-fluoro-3-methylphenyl)-1,2,4-trimethyl-5-(2-((4-methyl-1-(1-methyl-1H-pyrazole-4-carbonyl)piperidin-4-yl)amno)-2-oxoacetyl)-1H-pyrrole-3-carboxamide] | > 30 µM | < 0.05 µM
Cc1cc(NC(=O)c2c(C)c(C(=O)C(=O)NC3(C)CCS(=O)(=O)CC3)n(C)c2C)ccc1F [Example 622, N-(4-fluoro-3-methylphenyl)-1,2,4-trimethyl-5-(2-((4-methyl-1,1-dioxidotetrahydro-2H-thiopyran-4-yl)amino)-2-oxoacetyl)-1H-pyrrole-3-carboxamide] | > 30 µM | < 0.05 µM
Cc1cc(NC(=O)c2c(C)c(C(=O)C(=O)N[C@H]3CC[C@@H](C#N)CC3)n(C)c2C)ccc1F [Example 283] | 5 to 30 µM | < 0.05 µM
Cc1cc(NC(=O)c2cc(C(=O)C(=O)NC(C)(C)C)n3c2CNCC3)ccc1F [Example 588, 6-(2-(tert-butylamino)-2-oxoacetyl)-N-(4-fluoro-3-methylphenyl)-1,2,3,4-tetrahydropyrrolo[1,2-a]pyrazine-8-carboxamide] | 5 to 30 µM | 0.05 to 0.499 µM
Cc1c(C(=O)Nc2ccc(F)c(F)c2)c(C)n(C)c1C(=O)C(=O)Nc1cccnc1 [Example 296, N-(3,4-difluorophenyl)-1,2,4-trimethyl-5-(2-oxo-2-(pyridin-3-ylamino)acetyl)-1H-pyrrole-3-carboxamide] | > 30 µM | < 0.05 µM
Cc1cc(NC(=O)c2c(C)c(C(=O)C(=O)NC3(C)C(=O)NCC34CC4)n(C)c2C)ccc1F (stereo not drawn) [Example 680, N-(4-fluoro-3-methylphenyl)-1,2,4-trimethyl-5-(2-((7-methyl-6-oxo-5-azaspiro[2.4]heptan-7-yl)amino)-2-oxoacetyl)-1H-pyrrole-3-carboxamide] | > 30 µM | < 0.05 µM
Cc1c(C(=O)Nc2cc(F)c(F)c(F)c2)c(C)n(C)c1C(=O)C(=O)Nc1ccccn1 [Example 318, 1,2,4-trimethyl-5-(2-oxo-2-(pyridin-2-ylamino)acetyl)-N-(3,4,5-trifluorophenyl)-1H-pyrrole-3-carboxamide] | > 30 µM | 0.05 to 0.499 µM
Cc1cc(NC(=O)c2c(Cl)c(C(=O)C(=O)N[C@@H]3CCC[C@@H]3O)n(C)c2C)ccc1F [Example 367, 4-chloro-N-(4-fluoro-3-methylphenyl)-5-(2-(((1R,2S)-2-hydroxycyclopentyl)aminO)-2-oxoacetyl)-1,2-dimethyl-1H-pyrrole-3-carboxamide] | 5 to 30 µM | < 0.05 µM
Cc1noc(C2(NC(=O)C(=O)c3cc(C(=O)Nc4ccc(F)c(C)c4)c4n3CCCC4)CC2)n1 [Example 418, N-(4-fluoro-3-methylphenyl)-3-(2-((1-(3-methyl-1,2,4-oxadiazol-5-yl)cyclopropyl)amino)-2-oxoacetyl)-5,6,7,8-tetrahydroidolizine-1-carboxamide] | > 30 µM | 0.05 to 0.499 µM
Cc1c(C(=O)Nc2ccc(F)c(F)c2)c2n(c1C(=O)C(=O)NC1(CO)CC1)CCCC2 [Example 463, N-(3,4-difluorophenyl)-3-(2-((1-(hydroxymethyl)cyclopropyl)amino)-2-oxoacetyl)-2-methyl-5,6,7,8-tetrahydroindolizine-1-carboxamide] | 5 to 30 µM | 0.05 to 0.499 µM
Cc1cc(NC(=O)c2c(C)c(C(=O)C(=O)NCC(C)(C)O)n(C)c2Cl)ccc1F [Example 388, 2-chloro-N-(4-fluoro-3-methylphenyl)-5-(2-((2-hydroxy-2-methylpropyl)amino)-2-oxoacetyl)-1,4-dimethyl-1H-pyrrole-3-carboxamide] | 5 to 30 µM | > 1 µM
Cc1cc(NC(=O)c2c(C)c(C(=O)C(=O)N[C@@H]3CCC[C@H]3O)n(C)c2C)cnc1F [Example 132, N-(6-fluoro-5-methylpyridin-3-yl)-5-(2-(((1R,2R)-2-hydroxycyclopentyl)amino)-2-oxoacetyl)-1,2,4-trimethyl-1H-pyrrole-3-carboxamide] | > 30 µM | 0.05 to 0.499 µM
Cc1cc(NC(=O)c2c(C)c(C(=O)C(=O)Nc3ccc(B(O)O)cc3)n(C)c2C)ccc1F [Example 255, (4-(2-(4-((4-fluoro-3-methylphenyl)carbamoyl)-1,3,5-trimethyl-1H-pyrrol-2-yl)-2-oxoacetamido)phenyl)boronic acid] | 5 to 30 µM | < 0.05 µM
Cc1c(C(=O)Nc2ccc(F)c(F)c2)c(C)n(C)c1C(=O)C(=O)NC(C)(C)CO [Example 148, N-(3,4-difluorophenyl)-5-(2-((1-hydroxy-2-methylpropan-2-yl)amino)-2-oxoacetyl)-1,2,4-trimethyl-1H-pyrrole-3-carboxamide] | > 30 µM | < 0.05 µM
Cc1noc([C@@H](C)NC(=O)C(=O)c2c(C)c(C(=O)Nc3ccc(F)c(Cl)c3)c3n2CCCC3)n1 [Example 447, (R)-N-(3-chloro-4-fluorophenyl)-2-methyl-3-(2-((1-(3-methyl-1,2,4-oxadiazol-5-yl)ethyl)amino)-2-oxoacetyl)-5,6,7,8-tetrahydroindolizine-1-carboxamide] | 5 to 30 µM | < 0.05 µM
Cc1cc(NC(=O)c2c(C)c(C(=O)C(=O)NC(C)(C)COC(F)F)n(C)c2C)ccc1F [Example 718, 5-(2-((1-(difluoromethoxy)-2-methylpropan-2-yl)amino)-2-oxoacetyl)-N-(4-fluoro-3-methylphenyl)-1,2,4-trimethyl-1H-pyrrole-3-carboxamide] | 5 to 30 µM | < 0.05 µM
Cc1cc(NC(=O)c2cc(C(=O)C(=O)NC[C@H](O)CO)n3c2CCCC3)ccc1F [Example 416, (S)-3-(2-((2,3-dihydroxypropyl)amino)-2-oxoacetyl)-N-(4-fluoro-3-methylphenyl)-5,6,7,8-tetrahydroindolizine-1-carboxamide] | > 30 µM | > 1 µM
Cc1cc(NC(=O)c2c(C)c(C(=O)C(=O)NC3(c4cccs4)CCCCC3)n(C)c2C)ccc1F [Example 633, N-(4-fluoro-3-methylphenyl)-1,2,4-trimethyl-5-(2-oxo-2-((1-(thiophen-2-yl)cyclohexyl)amino)acetyl)-1H-pyrrole-3-carboxamide] | > 30 µM | < 0.05 µM

From US20190375708A1 (VenatoRx Pharmaceuticals, Inc., priority 2018, published 2019)
